Test results from PubChem BioAssay (NCI).
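Dose response: 5 concentrations. Exposure: 48 h. Format: 96-well plates. Endpoint: linear interpolation; highest concentration if not reached. GI50: concentration for 50% inhibition of growth. TGI: total growth inhibition.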

Tests used:
Experiment in all cases: inhibition of tumour cell growth, NCI panel, 48 h
MDA-MB-231 breast = system: MDA-MB-231 breast
K-562 leukemia = system: K-562 leukemia
LOX IMVI melanoma = system: LOX IMVI melanoma
NCI-H460 lung = system: NCI-H460 lung
HT29 colon = system: HT29 colon
MCF7 breast = system: MCF7 breast
MOLT-4 leukemia = system: MOLT-4 leukemia
KM12 colon = system: KM12 colon
COLO 205 colon = system: COLO 205 colon
NCI-H226 lung = system: NCI-H226 lung
HL-60(TB) leukemia = system: HL-60(TB) leukemia
OVCAR-3 ovarian = system: OVCAR-3 ovarian
SW-620 colon = system: SW-620 colon
EKVX NSCLC = system: EKVX NSCLC
HCC-2998 colon = system: HCC-2998 colon
NCI/ADR-RES ovarian = system: NCI/ADR-RES ovarian
SK-MEL-5 melanoma = system: SK-MEL-5 melanoma
HOP-62 NSCLC = system: HOP-62 NSCLC
U251 CNS = system: U251 CNS
SF-539 CNS = system: SF-539 CNS
MALME-3M melanoma = system: MALME-3M melanoma
A498 renal = system: A498 renal
CAKI-1 renal = system: CAKI-1 renal
HCT-116 colon = system: HCT-116 colon
786-0 renal = system: 786-0 renal
RPMI-8226 leukemia = system: RPMI-8226 leukemia
SNB-19 CNS = system: SNB-19 CNS
NCI-H23 lung = system: NCI-H23 lung
TK-10 renal = system: TK-10 renal
SF-268 CNS = system: SF-268 CNS
T-47D breast = system: T-47D breast
HCT-15 colon = system: HCT-15 colon
UO-31 renal = system: UO-31 renal
MDA-MB-435 = system: MDA-MB-435
A549 NSCLC = system: A549 NSCLC
SNB-75 CNS = system: SNB-75 CNS
SK-OV-3 ovarian = system: SK-OV-3 ovarian
M14 melanoma = system: M14 melanoma
HOP-92 NSCLC = system: HOP-92 NSCLC
SN12C renal = system: SN12C renal
UACC-62 melanoma = system: UACC-62 melanoma
OVCAR-8 ovarian = system: OVCAR-8 ovarian
RXF 393 renal = system: RXF 393 renal
BT-549 breast = system: BT-549 breast
OVCAR-4 ovarian = system: OVCAR-4 ovarian
DU-145 prostate = system: DU-145 prostate
ACHN renal = system: ACHN renal
IGROV1 ovarian = system: IGROV1 ovarian
SK-MEL-28 melanoma = system: SK-MEL-28 melanoma
UACC-257 melanoma = system: UACC-257 melanoma
SF-295 CNS = system: SF-295 CNS
PC-3 prostate = system: PC-3 prostate
SK-MEL-2 melanoma = system: SK-MEL-2 melanoma
NCI-H522 lung = system: NCI-H522 lung
HS 578T breast = system: HS 578T breast
OVCAR-5 ovarian = system: OVCAR-5 ovarian
CCRF-CEM leukemia = system: CCRF-CEM leukemia

C=CC1CC12C(=O)C1OC2(C)C2C(=O)c3c(O)ccc(O)c3C(=O)C12 (stereo not drawn)
GI50 (MDA-MB-231 breast): 2.33 µM
TGI (MDA-MB-231 breast): 7.38 µM
GI50 (K-562 leukemia): 2.48 µM
TGI (K-562 leukemia): 6.95 µM
GI50 (LOX IMVI melanoma): 2.35 µM
TGI (LOX IMVI melanoma): 10.6 µM
GI50 (NCI-H460 lung): 7.09 µM
TGI (NCI-H460 lung): 23.7 µM
GI50 (HT29 colon): 4.03 µM
TGI (HT29 colon): 16 µM
GI50 (MCF7 breast): 2.2 µM
TGI (MCF7 breast): 8.38 µM
GI50 (MOLT-4 leukemia): 0.617 µM
TGI (MOLT-4 leukemia): 17 µM
GI50 (KM12 colon): 5.83 µM
TGI (KM12 colon): 17.3 µM
GI50 (COLO 205 colon): 1.52 µM
TGI (COLO 205 colon): 17 µM
GI50 (NCI-H226 lung): 5.8 µM
TGI (NCI-H226 lung): 14.2 µM
GI50 (HL-60(TB) leukemia): 1.19 µM
TGI (HL-60(TB) leukemia): 3.79 µM
GI50 (OVCAR-3 ovarian): 1.13 µM
TGI (OVCAR-3 ovarian): 3.83 µM
GI50 (SW-620 colon): 2.32 µM
TGI (SW-620 colon): 5.88 µM
GI50 (EKVX NSCLC): 7.46 µM
TGI (EKVX NSCLC): 28.2 µM
GI50 (HCC-2998 colon): 13.8 µM
TGI (HCC-2998 colon): 30.1 µM
GI50 (NCI/ADR-RES ovarian): 3.76 µM
TGI (NCI/ADR-RES ovarian): 12.1 µM
GI50 (SK-MEL-5 melanoma): 1.86 µM
TGI (SK-MEL-5 melanoma): 4.97 µM
GI50 (HOP-62 NSCLC): 9.66 µM
TGI (HOP-62 NSCLC): 25 µM
GI50 (U251 CNS): 4.3 µM
TGI (U251 CNS): 12.6 µM
GI50 (SF-539 CNS): 4.5 µM
TGI (SF-539 CNS): 14.8 µM
GI50 (MALME-3M melanoma): 1.46 µM
TGI (MALME-3M melanoma): 4.76 µM
GI50 (A498 renal): 3.89 µM
TGI (A498 renal): 13.4 µM
GI50 (CAKI-1 renal): 0.402 µM
TGI (CAKI-1 renal): 1.65 µM
GI50 (HCT-116 colon): 4.66 µM
TGI (HCT-116 colon): 9.03 µM
GI50 (786-0 renal): 1.94 µM
TGI (786-0 renal): 4.27 µM
GI50 (RPMI-8226 leukemia): 0.423 µM
GI50 (SNB-19 CNS): 5.35 µM
TGI (SNB-19 CNS): 14.5 µM
GI50 (NCI-H23 lung): 2.95 µM
TGI (NCI-H23 lung): 8.01 µM
GI50 (TK-10 renal): 2.96 µM
TGI (TK-10 renal): 9.38 µM
GI50 (SF-268 CNS): 2.8 µM
TGI (SF-268 CNS): 9.58 µM
GI50 (T-47D breast): 2.56 µM
TGI (T-47D breast): 14.1 µM
GI50 (HCT-15 colon): 2 µM
TGI (HCT-15 colon): 5.05 µM
GI50 (UO-31 renal): 7.83 µM
TGI (UO-31 renal): 25.6 µM
GI50 (MDA-MB-435): 4.44 µM
TGI (MDA-MB-435): 11.1 µM
GI50 (A549 NSCLC): 8.5 µM
TGI (A549 NSCLC): 27.2 µM
GI50 (SNB-75 CNS): 6.03 µM
TGI (SNB-75 CNS): 15.3 µM
GI50 (SK-OV-3 ovarian): 11.9 µM
TGI (SK-OV-3 ovarian): 41.2 µM
GI50 (M14 melanoma): 3.58 µM
TGI (M14 melanoma): 14.7 µM
GI50 (HOP-92 NSCLC): 2.69 µM
TGI (HOP-92 NSCLC): 6.59 µM
GI50 (SN12C renal): 3.2 µM
TGI (SN12C renal): 11.6 µM
GI50 (UACC-62 melanoma): 2.37 µM
TGI (UACC-62 melanoma): 6.31 µM
GI50 (OVCAR-8 ovarian): 6.24 µM
TGI (OVCAR-8 ovarian): 20.2 µM
GI50 (RXF 393 renal): 2.11 µM
TGI (RXF 393 renal): 5.3 µM
GI50 (BT-549 breast): 10.2 µM
TGI (BT-549 breast): 26.3 µM
GI50 (OVCAR-4 ovarian): 7.84 µM
TGI (OVCAR-4 ovarian): 25.6 µM
GI50 (DU-145 prostate): 3.91 µM
TGI (DU-145 prostate): 13 µM
GI50 (ACHN renal): 1.77 µM
TGI (ACHN renal): 4.37 µM
GI50 (IGROV1 ovarian): 3.26 µM
TGI (IGROV1 ovarian): > 100 µM
GI50 (SK-MEL-28 melanoma): 4.94 µM
TGI (SK-MEL-28 melanoma): 25.4 µM
GI50 (UACC-257 melanoma): 3.75 µM
TGI (UACC-257 melanoma): 11.2 µM
GI50 (SF-295 CNS): 1.39 µM
TGI (SF-295 CNS): 5.55 µM
GI50 (PC-3 prostate): 4.72 µM
TGI (PC-3 prostate): 15.3 µM
GI50 (SK-MEL-2 melanoma): 14.5 µM
TGI (SK-MEL-2 melanoma): > 100 µM
GI50 (NCI-H522 lung): 6.23 µM
TGI (NCI-H522 lung): 16.8 µM
GI50 (HS 578T breast): 7.44 µM
TGI (HS 578T breast): 19.3 µM
GI50 (OVCAR-5 ovarian): 5.69 µM
TGI (OVCAR-5 ovarian): 12 µM
GI50 (CCRF-CEM leukemia): 1.3 µM
TGI (CCRF-CEM leukemia): 16 µM
